{"source": "patent US20260000669A1", "about": "“TREATMENT REGIMEN FOR AUTOIMMUNE DISEASES AND INFLAMMATORY DISEASES” (Merck Patent GmbH, priority 2022, published 2026)", "key": {"SARS-CoV-2 [1]": {"system": "SARS-CoV-2", "settings": "MS patients, 2 to 4 weeks after second dose of mRNA COVID-19 vaccine; cited from earlier work"}, "[2]": {"settings": "relapsing MS patients; cited from earlier work"}, "SARS-CoV-2 [3]": {"system": "SARS-CoV-2", "format": "in vivo, human"}, "[4]": {"settings": "mouse model of RA, orally administered; cited from earlier work"}, "[5]": {"settings": "mouse model of SLE, orally administered; cited from earlier work"}, "SARS-CoV-2 [6]": {"system": "SARS-CoV-2", "source_text": "The clinical study NCT02975349 is a phase II, randomized, placebo-controlled trial to evaluate the safety and efficacy of evobrutinib (M2951) in subjects with relapsing multiple sclerosis (RMS). […] The study was composed of a screening period of 4 weeks, a double blinded treatment period of 48 weeks, with an optional open-label extension (OLE) period of 312 weeks, and a safety follow-up period of 4 weeks post-treatment.\nPatients were randomized 1:1:1:1: to receive placebo, oral evobrutinib 25 mg once-daily (QD), 75 mg QD, 75 mg twice-daily (BID), or open-label dimethyl fumarate. Patients who received placebo during the first 24 weeks of the DBP, were switched to evobrutinib 25 mg QD until the end of the double-blind period (i.e., 48 weeks). Patients participating in the OLE after the DBP received EVO 75 mg QD and then, after a mean of 49.8 weeks, switched to EVO 75 mg BID.\nFor the analysis of pre-vaccination, post-vaccination and post-booster vaccination S1/S2 IgG antibody levels, plasma samples were selected according to the following criteria: • Pre-vaccination: sample taken at the last doctor's visit of the patient before the date when the first COVID-19 vaccine dose was administered • post-vaccination: sample taken at the first doctor's visit of the patient that took place at least 28 days after a complete vaccination cycle (as defined by the manufacturer) was administered (for example, in case of the mRNA COVID vaccine of VAC-OLE I, at least 28 days after the date when the second dose of the mRNA COVID vaccine was administered) • post-booster vaccination: sample taken in the first doctor's visit of the patients that took place at least 7 days after the date when the booster vaccination was administered\nA total of 24 patients, fulfilling the following criteria, were included in the analysis and constituted the VAC-OLE I analysis set: • Subjects who were in the OLE and received evobrutinib 75 mg BID, and • had 2 doses of mRNA vaccine against COVID reported as concomitant medication, and • signed the Informed Consent for the vaccination analysis.\nSubjects were administered the two doses of vaccine during the course of the study based on investigator's judgement. Of the 24 vaccinated patients: • 20 received the mRNA vaccine by BioNTech/Pfizer • 4 patients received the mRNA vaccine by Moderna.\nSARS-CoV-2 antibody levels were determined using the LIAISON® SARS-CoV-2 S1/S2 IgG assay (DiaSorin, Inc); an indirect sandwich chemiluminescent immunoassay that qualitatively detects IgG antibodies to SARS-CoV-2. […] Briefly, magnetic particles coated with recombinant S1 and S2 SARS-CoV-2 proteins were incubated with patients' plasma samples, calibrator samples or control samples. After washing away unbound material, a mouse monoclonal anti-human IgG antibody linked to an isoluminol derivative was added. Following another incubation and wash step, the starter reagents were added triggering a flash chemiluminescence reaction. The resulting light signal, representative of the amount of bound isoluminol-antibody conjugate, was measured by a photo multiplier as relative light units (RLU) and was indicative of the presence of IgG S1/S2 antibodies to SARS-CoV-2 virus. Test results are assessed qualitatively as positive or negative. The lower limit of quantification (LLoQ) in this assay was 3.8 AU/mL. In line with FDA guidance, values below a cutoff of 15 AU/mL (i.e. about 4× above the LLoQ for the assay) were considered as a negative readout.\nThe primary endpoint of this study was defined as fold changes in levels of S1/S2 IgG antibodies from pre- to post-vaccination."}, "[7]": {"settings": "all participants (N=45), VAC-OLE II, evobrutinib 75 mg BID"}, "[8]": {"settings": "booster subgroup (N=14), mRNA booster, VAC-OLE II"}, "[9]": {"settings": "participants that received mRNA vaccines (37), VAC-OLE II"}, "[10]": {"settings": "participants that received non-mRNA vaccines (8), VAC-OLE II"}, "[11]": {"settings": "seronegative subgroup (N=32), VAC-OLE II"}, "[12]": {"settings": "seropositive subgroup (N=13), VAC-OLE II"}, "[13]": {"settings": "overall VAC-OLE I population (N=24), evobrutinib 75 mg BID"}, "[14]": {"settings": "seronegative subgroup (19 patients), VAC-OLE I"}, "[15]": {"settings": "seropositive subgroup (5 patients), VAC-OLE I"}}, "note": "Where two headings read alike, the source gives them in different places.", "data": [{"compound": "ocrelizumab: B and/or T cell receptor directed antibody; a disease modifying treatment for multiple sclerosis", "values": [{"measurement": "S1/S2 IgG antibody levels", "setting": "SARS-CoV-2 [1]", "result": "very low"}]}, {"compound": "C=CC(=O)N1CCC[C@@H](n2c(=O)n(-c3ccc(Oc4ccccc4)cc3)c3c(N)nccc32)C1", "note": "[tolebrutinib, reference compound]", "values": [{"measurement": "results in RMS phase II trials", "setting": "[2]", "result": "positive results"}]}, {"compound": "C=CC(=O)N1CCC(CNc2ncnc(N)c2-c2ccc(Oc3ccccc3)cc2)CC1", "note": "[evobrutinib, 1-[4-({[6-amino-5-(4-phenoxyphenyl)pyrimidin-4-yl]amino}methyl)piperidin-1-yl]prop-2-en-1-one]", "values": [{"measurement": "participants with >30-fold induction of S1/S2 IgG antibody levels", "setting": "SARS-CoV-2 [3]; 21 of 45 participants, VAC-OLE II", "result": 47, "unit": "%"}, {"measurement": "participants with >10-fold increase of S1/S2 IgG antibody levels", "setting": "SARS-CoV-2 [3]; 38 of 45 participants, VAC-OLE II", "result": 84, "unit": "%"}, {"measurement": "S1/S2 IgG antibody geometric mean post-vaccination", "setting": "SARS-CoV-2 [3]; <8 weeks subgroup, VAC-OLE II", "result": 672, "unit": "AU/mL"}, {"measurement": "participants with >30-fold change in antibody levels after vaccination", "setting": "SARS-CoV-2 [3]; >8 and ≤12 weeks subgroup (7 of 19), VAC-OLE II", "result": 37, "unit": "%"}, {"measurement": "S1/S2 IgG antibody geometric mean post-vaccination", "setting": "SARS-CoV-2 [3]; >8 week to ≤12 weeks subgroup, VAC-OLE II", "result": 166, "unit": "AU/mL"}, {"measurement": "participants with >30-fold change in antibody levels after vaccination", "setting": "SARS-CoV-2 [3]; >12 weeks group (2/13), VAC-OLE II", "result": 15, "unit": "%"}, {"measurement": "S1/S2 IgG antibody geometric mean post-vaccination", "setting": "SARS-CoV-2 [3]; >12 weeks subgroup, VAC-OLE II", "result": 142, "unit": "AU/mL"}, {"measurement": "fold increase in anti-COVID-19 antibody levels pre- to post-vaccination", "setting": "SARS-CoV-2 [3]; all participants (N=45), VAC-OLE II", "result": 45, "unit": "fold"}, {"measurement": "S1/S2 IgG antibody level after a complete vaccination cycle, geometric mean", "setting": "SARS-CoV-2 [3]; [7]", "result": 237.8, "unit": "AU/mL"}, {"measurement": "S1/S2 IgG antibody level pre-vaccination, geometric mean", "setting": "SARS-CoV-2 [3]; [7]", "result": 9.0, "unit": "AU/mL"}, {"measurement": "fold change in the geometric mean of S1/S2 IgG antibody", "setting": "SARS-CoV-2 [3]; assessed >8 week to ≤12 weeks after complete vaccination cycle, VAC-OLE II", "result": 17.7}, {"measurement": "fold change in the geometric mean of S1/S2 IgG antibody", "setting": "SARS-CoV-2 [3]; assessed >12 weeks after complete vaccination cycle, VAC-OLE II", "result": 17.8}, {"measurement": "fold change in the geometric mean of S1/S2 IgG antibody", "setting": "SARS-CoV-2 [3]; assessed ≤8 weeks after complete vaccination cycle, VAC-OLE II", "result": 69.7}, {"measurement": "S1/S2 IgG antibody levels after booster vaccination compared to levels after the complete vaccination cycle", "setting": "SARS-CoV-2 [3]; booster subgroup (N=14), VAC-OLE II", "result": "Higher"}, {"measurement": "geometric mean fold change from post-vaccination to post-booster", "setting": "SARS-CoV-2 [3]; [8]", "result": 6.3}, {"measurement": "geometric mean fold change from pre-vaccination to post-booster", "setting": "SARS-CoV-2 [3]; [8]", "result": 214}, {"measurement": "response to COVID vaccination compared with individuals not under BTK inhibitor treatment", "setting": "SARS-CoV-2 [3]; conclusion of Example 2, comparison with published data", "result": "comparably to healthy individuals"}, {"measurement": "post-vaccination S1/S2 IgG antibody geometric mean", "setting": "SARS-CoV-2 [3]; [9]", "result": 247.7, "unit": "AU/mL"}, {"measurement": "pre-vaccination S1/S2 IgG antibody geometric mean", "setting": "SARS-CoV-2 [3]; [9]", "result": 8.5, "unit": "AU/mL"}, {"measurement": "post-vaccination S1/S2 IgG antibody geometric mean", "setting": "SARS-CoV-2 [3]; [10]", "result": 197.1, "unit": "AU/mL"}, {"measurement": "pre-vaccination S1/S2 IgG antibody geometric mean", "setting": "SARS-CoV-2 [3]; [10]", "result": 12.1, "unit": "AU/mL"}, {"measurement": "S1/S2 IgG antibody post-vaccination geometric mean level", "setting": "SARS-CoV-2 [3]; [11]", "result": 133.6, "unit": "AU/mL"}, {"measurement": "S1/S2 IgG antibody values prior to vaccination (majority of participants, lower limit of quantification)", "setting": "SARS-CoV-2 [3]; [11]", "result": 3.8, "unit": "AU/mL"}, {"measurement": "S1/S2 IgG antibody geometric mean level after a complete vaccination cycle", "setting": "SARS-CoV-2 [3]; [12]", "result": 984.4, "unit": "AU/mL"}, {"measurement": "S1/S2 IgG antibody pre-vaccination geometric mean level", "setting": "SARS-CoV-2 [3]; [12]", "result": 55.5, "unit": "AU/mL"}, {"measurement": "results in RMS phase II trials", "setting": "[2]", "result": "positive results"}, {"measurement": "efficacy (reduction of disease severity and histological damage)", "setting": "[4]", "result": "good efficacy"}, {"measurement": "efficacy (reduction of disease severity and histological damage)", "setting": "[5]", "result": "good efficacy"}, {"measurement": "S1/S2 IgG antibody level, geometric mean, after second vaccination", "setting": "SARS-CoV-2 [6]; [13]", "result": 209.1, "unit": "AU/mL"}, {"measurement": "S1/S2 IgG antibody level, geometric mean, before first vaccination", "setting": "SARS-CoV-2 [6]; [13]", "result": 6.7, "unit": "AU/mL"}, {"measurement": "S1/S2 IgG antibody level post-vaccination, geometric mean", "setting": "SARS-CoV-2 [6]; sample collected >12 weeks after second vaccination, VAC-OLE I", "result": 74}, {"measurement": "S1/S2 IgG antibody level post-vaccination, geometric mean", "setting": "SARS-CoV-2 [6]; sample collected between 8 and 12 weeks after second dose, VAC-OLE I", "result": 264}, {"measurement": "S1/S2 IgG antibody level post-vaccination, geometric mean", "setting": "SARS-CoV-2 [6]; sample collected less or equal to 8 weeks after second vaccination, VAC-OLE I", "result": 383, "unit": "AU/mL"}, {"measurement": "geometric mean fold change of S1/S2 IgG antibody levels", "setting": "SARS-CoV-2 [6]; seronegative patients, VAC-OLE I", "result": 36.0}, {"measurement": "S1/S2 IgG antibody level prior to vaccination (majority of patients, lower limit of quantification)", "setting": "SARS-CoV-2 [6]; [14]", "result": "around 3.8 AU/ml"}, {"measurement": "S1/S2 IgG antibody level, geometric mean post-vaccination", "setting": "SARS-CoV-2 [6]; [14]", "result": 155.8, "unit": "AU/mL"}, {"measurement": "geometric mean fold change of S1/S2 IgG antibody levels", "setting": "SARS-CoV-2 [6]; seropositive patients, VAC-OLE I", "result": 18.0}, {"measurement": "S1/S2 IgG antibody level, geometric mean after the second vaccination", "setting": "SARS-CoV-2 [6]; [15]", "result": 639.6, "unit": "AU/mL"}, {"measurement": "S1/S2 IgG antibody level, geometric mean pre-vaccination", "setting": "SARS-CoV-2 [6]; [15]", "result": 35.5, "unit": "AU/mL"}]}]}
